In patent US11179372B2, “Isoxazoline solution containing vitamin E for use with sanitized drinking water” (Intervet Inc., priority 2015, dated 2021):

Tests used:
[1] = Tolerance and plasma concentrations of Fluralaner in laying hens (Example 2); assay type: in vivo, chickens
Method: No vitamin E was present in the concentrated Fluralaner solution used to prepare the medicated drinking water.
The effectivity of an oral dosing regimen of Fluralaner was tested by administering medicated drinking water (via gavage) to laying hens, in 2 repeated doses of 0.25, 0.5 or 1.0 mg/kg body weight, administered 7 days apart, and challenging them with infestation by Northern fowl mites, via source birds and natural infestation. The birds were kept in separate pens, at 11 birds per pen.

[2] = Tolerance of Fluralaner in laying hens (Example 1); assay type: in vivo, chickens; settings: 0.5-2 mg/kg BW via medicated drinking water
Method: Experimental animals were chickens, particularly laying hens of about 30 weeks old. These were housed in a standard poultry house. Apparently healthy birds were assigned in a random way to treatment groups kept separately, and labelled individually. The birds were kept under natural light, and were given several days for acclimatization; drinking water consumption in each group was measured on three days prior to administration to calculate the average daily water consumption. Medicated water was prepared by diluting a concentrated Fluralaner solution (10 mg/ml) to the desired concentration of Fluralaner in regular tap water (hypochlorite <0.5 ppm). […]
The dose to be administered was calculated based on average body weights of each treatment group, measured one day before treatment (day −1, day 6). A concentrated Fluralaner solution was diluted in the drinking water to prepare medicated drinking water ready for consumption, via the following dosing regimen: • The volume of medicated water offered per group on day 0 (group D also on day 7) was approximately 50% of the calculated mean daily water intake measured previously in the respective group in order to ensure consumption of the full dose. • Once all medicated water was consumed the other 50% volume of the mean daily water intake was supplied as unmedicated tap water in the same drinker.

[3] = Accelerated stability testing of pharmaceutical composition comprising a protector; assay type: physicochemical; settings: with alpha-tocopherol; up to 8 months; 2-8° C., 30° C./65% RH, 40° C./75% RH, 50° C.
Method: Similar to the experiments described in Example 3 above, where the effect of water quality on Fluralaner-containing medicated drinking water was tested; here samples of the pharmaceutical composition were tested for an effect of the addition of a protector, on their stability during prolonged storage.
To test the long term stability of the pharmaceutical composition with a protector, some samples were stored under conditions of accelerated ageing. Samples of the pharmaceutical composition with or without one of the protectors, were filled out in portions of 7 gram each, in 10 ml glass vials, sealed with rubber stoppers, and stored under different conditions: 2-8° C.; 30° C./65% RH; 40° C./75% RH, and 50° C. […]

## Cc1cc(C2=NOC(c3cc(Cl)cc(Cl)c3)(C(F)(F)F)C2)ccc1C(=O)NCC(=O)NCC(F)(F)F (stereo not shown) [Fluralaner]
[1]; 2 single doses of 0.25, 0.5, or 1 mg/kg BW, 7 days apart, oral
  Tolerance in the hens: well tolerated
[1]; doses 0.25, 0.5, 1.0 mg/kg BW twice
  Concentrations of Fluralaner in the birds' plasma: increased proportionally to the dose administered
[2]
  Tolerance in the hens: well tolerated
[3]
  Level of Fluralaner in pharmaceutical composition on storage: no significant reduction
